Here are results for 4 molecules from paper PMC7917901 (Marine Drugs, 2021).

For series [1] the following is noted: human, in vivo; cited from earlier work.
The test system of series [2] is mechanical and cold allodynia. As to conditions: cited from earlier work.
The test system of series [3] is C57BL/6J mice. The experiment in a line: Induction of mechanical allodynia and general observations after intraplantar oxaliplatin or cisplatin. As to conditions: 40 µg/paw i.pl.
The test system of series [4] is nerve injury-induced hyperalgesia in mice. The conditions noted are these: mouse, in vivo, sc; cited from earlier work.
Series [5] deals with C57BL/6J mice. As to conditions: mouse, in vivo.
For series [6] the following is noted: to oxalate and dichloro 1,2-diaminocyclohexyl-platinum complex; ref [48]; cited from earlier work. From the text: Although both oxaliplatin and cisplatin are platinum based antineoplastic drugs, and both act by DNA alkylation, they differ markedly in their ability to elicit pain syndromes. […] The most distinctive feature of oxaliplatin is ...

Read-outs that look alike come from different tables or passages of the source.

Turning to `CSCC[C@@H]1NC(=O)[C@H](CC(C)C)NC(=O)[C@H](CCCNC(=N)N)NC(=O)[C@H](CO)NC(=O)[C@@H]2CSSC[C@@H]3NC(=O)[C@H](CO)NC(=O)CNC(=O)[C@H]([C@@H](C)O)NC(=O)[C@H](CSSC[C@H](N)C(=O)N[C@@H](CCCCN)C(=O)NCC(=O)N[C@@H](CCCCN)C(=O)NCC(=O)N[C@@H](C)C(=O)N[C@@H](CCCCN)C(=O)N2)NC(=O)[C@H](CSSC[C@@H](C(N)=O)NC(=O)[C@H](CCCCN)NC(=O)CNC(=O)[C@H](CO)NC(=O)[C@H](CCCNC(=N)N)NC3=O)NC(=O)[C@H](CC(=O)O)NC(=O)[C@H](Cc2ccc(O)cc2)NC1=O` [MVIIA], the “Dose limiting side effects” value in series [1] is “dose limiting side effects including dizziness, nystagmus, sedation, blurred vision, and orthostatic hypotension”.

For the molecule `N.N.[Cl][Pt][Cl]` [cisplatin], the “Type of allodynia caused” value in series [2] (ref [45],[46],[47]) is “only evokes mechanical allodynia”. For the same molecule, the “Adverse signs after platinum drug injection” value in series [3] is “No sign of adverse effects including, licking, shaking, or lameness of the injected paws was observed”. In addition, in series [3] (right hind paw, 24 h after injection, mean ± SEM, n = 18, naïve 3.3 ± 0.1 g, p < 0.0001), the “Mechanical PWT after cisplatin” value is 1.9 ± 0.1 g.

For the molecule `COC(=O)C1=C(C)NC(C)=C(C(=O)OC)C1c1ccccc1[N+](=O)[O-]` [nifedipine], in series [4], the “Effect on nerve injury-induced hyperalgesia” value was “ineffective”.

Consider `O=C1[O][Pt]2([NH][C@@H]3CCCC[C@H]3[NH]2)[O]C1=O` [oxaliplatin], for which, in series [5], the “Adverse signs after platinum drug injection” value was “maintained healthy appearance and body weight with no sign of licking, shaking, or lameness of the injected paw”; the “Mechanical PWT after oxaliplatin” value came to 1.4 ± 0.1 g. Also, in series [6], the “Non-enzymatic transformation” value is given as “fast, non-enzymatic transformation”. Moreover, the “Type of allodynia caused” value in series [2] (in vivo) was “causes both mechanical and cold allodynia”.
